Test results from PubChem BioAssay AID1963449 (Molecular Pharmacology Branch, DTP, NCI, 2024).
pIC50: −log10 of the molar value.

Tested on: 596521-263-R-J1-PDC complex spheroid growth
Assay: Anticancer human tumor 596521-263-R-J1-PDC patient-derived soft tissue sarcoma cell line growth inhibition [Asc]
Conditions: for pIC50: curve of first compound; for viability, T/C: stronger effect = lower value
Outline: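 Stromal components (HUVEC and hMSC) are co-assembled with the cancer cells into multicellular spheroids. Drugs are then added singly or paired, at concentrations falling by half-log increments from a clinically achievable maximum, capped at 10 microM without known Cmax.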
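Also: spheroids exposed to compounds for 7 days.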

`CCN1C(C(=O)NC23CCC(C(=O)O)(CC2)CC3)C(c2cccc(Cl)c2F)C2(C(=O)Nc3cc(Cl)ccc32)C12CCCCC2` (configuration not stated) + Cc1c(S(C)(=O)=O)c(-c2cc(F)cc(N3CCN(c4ccc(NS(=O)(=O)c5ccc(NC(CCN6CCC(C(=O)OCCCP(=O)(O)O)CC6)CSc6ccccc6)c(S(=O)(=O)C(F)(F)F)c5)cc4)CC3)c2)c(-c2ccc(Cl)cc2)n1C(C)C gave a pIC50 (second compound 0.0316 µM) of less than 5.52, a pIC50 (second compound 0.1 µM) of less than 5.52 and a pIC50 (second compound 0.316 µM) of less than 5.52. For the same compound, the pIC50 (second compound 1 µM) was 5.62, the pIC50 (second compound 3.16 µM) was 6.34 and the pIC50 (second compound 10 µM) was 6.88. For the same compound, the viability, T/C (second compound 0.0316 µM, first compound 0.00949 µM) was 94.6%, the viability, T/C (second compound 0.0316 µM, first compound 0.03 µM) was 97.5% and the viability, T/C (second compound 0.0316 µM, first compound 0.0949 µM) was 94.3%. It also gave a viability, T/C (second compound 0.0316 µM, first compound 0.3 µM) of 90.8%, a viability, T/C (second compound 0.0316 µM, first compound 0.949 µM) of 87.5% and a viability, T/C (second compound 0.0316 µM, first compound 3 µM) of 80.7%. The viability, T/C (second compound 0.1 µM, first compound 0.00949 µM) was 89.5%, the viability, T/C (second compound 0.1 µM, first compound 0.03 µM) was 94.8% and the viability, T/C (second compound 0.1 µM, first compound 0.0949 µM) was 95.9%. The viability, T/C (second compound 0.1 µM, first compound 0.3 µM) was 112%, the viability, T/C (second compound 0.1 µM, first compound 0.949 µM) was 87.7% and the viability, T/C (second compound 0.1 µM, first compound 3 µM) was 73.4%. It also gave a viability, T/C (second compound 0.316 µM, first compound 0.00949 µM) of 98.7%, a viability, T/C (second compound 0.316 µM, first compound 0.03 µM) of 92.4% and a viability, T/C (second compound 0.316 µM, first compound 0.0949 µM) of 84.7%. It also gave a viability, T/C (second compound 0.316 µM, first compound 0.3 µM) of 97.1%, a viability, T/C (second compound 0.316 µM, first compound 0.949 µM) of 83% and a viability, T/C (second compound 0.316 µM, first compound 3 µM) of 54.1%. The viability, T/C (second compound 1 µM, first compound 0.00949 µM) was 88.6%, the viability, T/C (second compound 1 µM, first compound 0.03 µM) was 76% and the viability, T/C (second compound 1 µM, first compound 0.0949 µM) was 67.2%. For the same compound, the viability, T/C (second compound 1 µM, first compound 0.3 µM) was 83.1%, the viability, T/C (second compound 1 µM, first compound 0.949 µM) was 62.7% and the viability, T/C (second compound 1 µM, first compound 3 µM) was 46.1%. For the same compound, the viability, T/C (second compound 3.16 µM, first compound 0.00949 µM) was 64.5%, the viability, T/C (second compound 3.16 µM, first compound 0.03 µM) was 71% and the viability, T/C (second compound 3.16 µM, first compound 0.0949 µM) was 54.8%. The viability, T/C (second compound 3.16 µM, first compound 0.3 µM) was 57.1%, the viability, T/C (second compound 3.16 µM, first compound 0.949 µM) was 42.2% and the viability, T/C (second compound 3.16 µM, first compound 3 µM) was 24.2%. For the same compound, the viability, T/C (second compound 10 µM, first compound 0.00949 µM) was 50.8%, the viability, T/C (second compound 10 µM, first compound 0.03 µM) was 53% and the viability, T/C (second compound 10 µM, first compound 0.0949 µM) was 51.7%. It also gave a viability, T/C (second compound 10 µM, first compound 0.3 µM) of 46.8%, a viability, T/C (second compound 10 µM, first compound 0.949 µM) of 33.8% and a viability, T/C (second compound 10 µM, first compound 3 µM) of 18.8%.
